According to article PMC10030075 (Medicinal Chemistry Research, 2023):

Tests used:
in vitro [1] = conditions: human, microsomes, pH 7.4
HBV = test: Preliminary screening of anti-HBV activity; format: cell-based, hepatitis B virus; conditions: inhibition of HBsAg and HBeAg expression, HepG2.2.15 cells
in vitro [2] = conditions: human, microsomes, pH 7.4; remark: listed apart in the source
Newcastle disease virus = conditions: cited from earlier work
duck hepatitis B virus = conditions: in vivo; cited from earlier work
hepatic fibrosis = conditions: 50 mg/kg or 100 mg/kg, by increasing phospho-FOXO1 expression; cited from earlier work

SMILES | half-life (in vitro [1]) [h] | anti-HBV activity (in words) (HBV) | half-life (in vitro [2]) [h] | Newcastle disease virus replication (Newcastle disease virus) | levels of HBsAg and HBeAg in duck serum (duck hepatitis B virus) | hepatic fibrosis (hepatic fibrosis)
O=c1ccc2ccc(O)cc2o1 [7-hydroxycoumarin, reference compound] | 0.263 | – | – | – | – | –
Cc1nccn1CCCCOc1cc2oc(=O)ccc2cc1O [Compound 6b, 6-Hydroxyl-7-(4-(2-methylimidazole-1-yl)butoxy)-2H-benzopyran-2-one] | > 5 | moderate anti-HBV activity | > 5 | – | – | –
Cc1nccn1CCCCCOc1cc2oc(=O)ccc2cc1O [Compound 6c, 6-Hydroxyl-7-(5-(2-methylimidazole-1-yl)pentyloxy)-2H-benzopyran-2-one] | > 5 | moderate anti-HBV activity | > 5 | – | – | –
Cc1nccn1CCCCCCOc1cc2oc(=O)ccc2cc1O [Compound 6d, 6-Hydroxyl-7-(6-(2-methylimidazole-1-yl)hexyloxy)-2H-benzopyran-2-one] | > 5 | – | > 5 | – | – | –
O=c1ccc2cc(O)c(O)cc2o1 [Esculetin, 6,7-dihydroxy-2-H-1-benzopyran-2-one] | – | – | – | inhibited Newcastle disease virus replication well | can reduce the levels of HBsAg and hepatitis B e antigen (HBeAg) in duck serum | improvement in hepatic fibrosis
C[C@]12CC[C@H]3[C@@H](CCC4=CC(=O)CC[C@@]43C)[C@@H]1CC[C@@H]2O [testosterone, reference compound] | – | – | 0.4 | – | – | –
